What follows are molecules tested on PBMCs infected with VSV-G pseudotyped HIV virus (VSV-G/pNLG1-P2A-ΔEnv) (assay: cells). Conditions: Homo sapiens, PBMC, read-out: EC50 (HIV-TACK cell kill activity).
Type: cell-based, human

Which EC50 does the source give for `CC(C)C#CC1(C(F)(F)F)NC(=O)Nc2cc(Cn3cnccc3=O)ccc21` (racemic) [Example 77, (S)-4-(3-methylbut-1-yn-1-yl)-7-((6-oxopyrimidin-1(6H)-yl)methyl)-4-(trifluoromethyl)-3,4-dihydroquinazolin-2(1H)-one AND (R)-4-(3-methylbut-1-yn-1-yl)-7-((6-oxopyrimidin-1(6H)-yl)methyl)-4-(trifluoromethyl)-3,4-dihydroquinazolin-2(1H)-one] here?
The EC50 was 87 nM.

For `CN1C(=O)Nc2cc(Cn3cnccc3=O)c(Cl)cc2C1(C#CC1CC1)C(F)(F)F` (racemic) [Example 78, (S)-6-chloro-4-(cyclopropylethynyl)-3-methyl-7-((6-oxopyrimidin-1(6H)-yl)methyl)-4-(trifluoromethyl)-3,4-dihydroquinazolin-2(1H)-one AND (R)-6-chloro-4-(cyclopropylethynyl)-3-methyl-7-((6-oxopyrimidin-1(6H)-yl)methyl)-4-(trifluoromethyl)-3,4-dihydroquinazolin-2(1H)-one], which EC50 is on record?
The EC50 was 38 nM.

Which EC50 does the source give for `CC(C)CC#CC1(C(F)(F)F)NC(=O)Nc2cc(Cn3cnccc3=O)ccc21` (racemic) [Example 79, (S)-4-(4-methylpent-1-yn-1-yl)-7-((6-oxopyrimidin-1(6H)-yl)methyl)-4-(trifluoromethyl)-3,4-dihydroquinazolin-2(1H)-one AND (R)-4-(4-methylpent-1-yn-1-yl)-7-((6-oxopyrimidin-1(6H)-yl)methyl)-4-(trifluoromethyl)-3,4-dihydroquinazolin-2(1H)-one] here?
Its EC50 is 230 nM.

How did the EC50 turn out when `N#Cc1cc2c(cc1Cn1cnccc1=O)NC(=O)NC2(C#CC1CC1)C(F)(F)F` (single isomer, unassigned) [Example 75] was run?
The EC50 was 221 nM.

For `CN1C(=O)Nc2cc(Cn3ccnc(N)c3=O)c(Cl)cc2C1(C#CC1CC1)C(F)(F)F` (single isomer, unassigned) [Example 76], which EC50 is on record?
The EC50 was 42 nM.

For `O=C1Nc2cc(Cn3cnccc3=O)c(F)cc2[C@@](C#CC2CC2)(C(F)(F)F)N1` [Example 1, (S)-4-(cyclopropylethynyl)-6-fluoro-7-((6-oxopyrimidin-1(6H)-yl)methyl)-4-(trifluoromethyl)-3,4-dihydroquinazolin-2(1H)-one], which EC50 is on record?
Its EC50 is 22 nM.

`Nc1nccn(Cc2cc3c(cc2F)[C@@](C#CC2CC2)(C(F)(F)F)NC(=O)N3)c1=O` [Example 2, (S)-7-((3-amino-2-oxopyrazin-1(2H)-yl)methyl)-4-(cyclopropylethynyl)-6-fluoro-4-(trifluoromethyl)-3,4-dihydroquinazolin-2(1H)-one] was tested. Which EC50 did it give?
Its EC50 is 15 nM.

`Cc1cc(=O)n(Cc2cc3c(cc2Cl)[C@@](C#CC2CC2)(C(F)(F)F)NC(=O)N3)cn1` [Example 3, (S)-6-chloro-4-(cyclopropylethynyl)-7-((4-methyl-6-oxopyrimidin-1(6H)-yl)methyl)-4-(trifluoromethyl)-3,4-dihydroquinazolin-2(1H)-one] was tested. Which EC50 did it give?
The EC50 was 26 nM.

For `CC(F)(F)[C@@]1(C#CC2CC2)NC(=O)Nc2cc(Cn3cnccc3=O)c(F)cc21` [Example 4, (S)-4-(cyclopropylethynyl)-4-(1,1-difluoroethyl)-6-fluoro-7-((6-oxopyrimidin-1(6H)-yl)methyl)-3,4-dihydroquinazolin-2(1H)-one], which EC50 is on record?
Its EC50 is 16 nM.

How did the EC50 turn out when `Nc1cncn(Cc2cc3c(cc2F)[C@@](C#CC2CC2)(C(F)(F)F)NC(=O)N3)c1=O` [Example 5, (S)-7-((5-amino-6-oxopyrimidin-1(6H)-yl)methyl)-4-(cyclopropylethynyl)-6-fluoro-4-(trifluoromethyl)-3,4-dihydroquinazolin-2(1H)-one] was run?
The EC50 was 35 nM.

Which EC50 does the source give for `O=C1Nc2cc(Cn3cnc(C(F)F)cc3=O)c(F)cc2[C@@](C#CC2CC2)(C(F)(F)F)N1` [Example 6, (S)-4-(cyclopropylethynyl)-7-((4-(difluoromethyl)-6-oxopyrimidin-1(6H)-yl)methyl)-6-fluoro-4-(trifluoromethyl)-3,4-dihydroquinazolin-2(1H)-one] here?
The EC50 was 38 nM.

With `COCc1cc(=O)n(Cc2cc3c(cc2F)[C@@](C#CC2CC2)(C(F)(F)F)NC(=O)N3)cn1` [Example 7, (S)-4-(cyclopropylethynyl)-6-fluoro-7-((4-(methoxymethyl)-6-oxopyrimidin-1(6H)-yl)methyl)-4-(trifluoromethyl)-3,4-dihydroquinazolin-2(1H)-one] as the molecule, how does the EC50 read?
Its EC50 is 44 nM.

For `Nc1c(Cl)ncn(Cc2cc3c(cc2F)[C@@](C#CC2CC2)(C(F)(F)F)NC(=O)N3)c1=O` [Example 8, (S)-7-((5-amino-4-chloro-6-oxopyrimidin-1(6H)-yl)methyl)-4-(cyclopropylethynyl)-6-fluoro-4-(trifluoromethyl)-3,4-dihydroquinazolin-2(1H)-one], which EC50 is on record?
The EC50 was 46 nM.

With `Nc1nccn(Cc2ccc3c(c2)NC(=O)N[C@]3(C#CC2CC2)C(F)(F)F)c1=O` [Example 9, (S)-7-((3-amino-2-oxopyrazin-1(2H)-yl)methyl)-4-(cyclopropylethynyl)-4-(trifluoromethyl)-3,4-dihydroquinazolin-2(1H)-one] as the molecule, how does the EC50 read?
The EC50 was 30 nM.

Which EC50 does the source give for `Nc1c(Cl)ncn(Cc2cc3c(cc2Cl)[C@@](C#CC2CC2)(C(F)(F)F)NC(=O)N3)c1=O` [Example 11, (S)-7-((5-amino-4-chloro-6-oxopyrimidin-1(6H)-yl)methyl)-6-chloro-4-(cyclopropylethynyl)-4-(trifluoromethyl)-3,4-dihydroquinazolin-2(1H)-one] here?
Its EC50 is 33 nM.

How did the EC50 turn out when `O=C1Nc2cc(Cn3cnc(Cl)cc3=O)c(Cl)cc2[C@@](C#CC2CC2)(C(F)(F)F)N1` [Example 12, (S)-6-chloro-7-((4-chloro-6-oxopyrimidin-1(6H)-yl)methyl)-4-(cyclopropylethynyl)-4-(trifluoromethyl)-3,4-dihydroquinazolin-2(1H)-one] was run?
The EC50 was 33 nM.

For `Nc1cc(=O)n(Cc2cc3c(cc2Cl)[C@@](C#CC2CC2)(C(F)(F)F)NC(=O)N3)cn1` [Example 13, (S)-7-((4-amino-6-oxopyrimidin-1(6H)-yl)methyl)-6-chloro-4-(cyclopropylethynyl)-4-(trifluoromethyl)-3,4-dihydroquinazolin-2(1H)-one], which EC50 is on record?
The EC50 was 46 nM.

`O=C1Nc2cc(Cn3cnccc3=O)c(Br)cc2[C@@](C#CC2CC2)(C(F)(F)F)N1` [Example 14, (S)-6-bromo-4-(cyclopropylethynyl)-7-((6-oxopyrimidin-1(6H)-yl)methyl)-4-(trifluoromethyl)-3,4-dihydroquinazolin-2(1H)-one] was tested. Which EC50 did it give?
The EC50 was 31 nM.

`COCc1cc(=O)n(Cc2ccc3c(c2)NC(=O)N[C@]3(C#CC2CC2)C(C)(F)F)cn1` [Example 15, (S)-4-(cyclopropylethynyl)-4-(1,1-difluoroethyl)-7-((4-(methoxymethyl)-6-oxopyrimidin-1(6H)-yl)methyl)-3,4-dihydroquinazolin-2(1H)-one] was tested. Which EC50 did it give?
Its EC50 is 65 nM.

Which EC50 does the source give for `Nc1nc(Br)cn(Cc2cc3c(cc2F)[C@@](C#CC2CC2)(C(F)(F)F)NC(=O)N3)c1=O` [Example 16, (S)-7-((3-amino-5-bromo-2-oxopyrazin-1(2H)-yl)methyl)-4-(cyclopropylethynyl)-6-fluoro-4-(trifluoromethyl)-3,4-dihydroquinazolin-2(1H)-one] here?
The EC50 was 38 nM.

How did the EC50 turn out when `CC(F)(F)[C@@]1(C#CC2CC2)NC(=O)Nc2cc(Cn3ccnc(N)c3=O)c(Cl)cc21` [Example 17, (S)-7-((3-amino-2-oxopyrazin-1(2H)-yl)methyl)-6-chloro-4-(cyclopropylethynyl)-4-(1,1-difluoroethyl)-3,4-dihydroquinazolin-2(1H)-one] was run?
Its EC50 is 17 nM.

With `Cc1cc(=O)n(Cc2cc3c(cc2Cl)[C@@](C#CC2CC2)(C(C)(F)F)NC(=O)N3)cn1` [Example 18, (S)-6-chloro-4-(cyclopropylethynyl)-4-(1,1-difluoroethyl)-7-((4-methyl-6-oxopyrimidin-1(6H)-yl)methyl)-3,4-dihydroquinazolin-2(1H)-one] as the molecule, how does the EC50 read?
Its EC50 is 15 nM.

For `COCc1cc(=O)n(Cc2cc3c(cc2Cl)[C@@](C#CC2CC2)(C(C)(F)F)NC(=O)N3)cn1` [Example 19, (S)-6-chloro-4-(cyclopropylethynyl)-4-(1,1-difluoroethyl)-7-((4-(methoxymethyl)-6-oxopyrimidin-1(6H)-yl)methyl)-3,4-dihydroquinazolin-2(1H)-one], which EC50 is on record?
The EC50 was 14 nM.

With `Nc1nccn(Cc2c(F)cc3c(c2F)NC(=O)N[C@]3(C#CC2CC2)C(F)(F)F)c1=O` [Example 20, (S)-7-((3-amino-2-oxopyrazin-1(2H)-yl)methyl)-4-(cyclopropylethynyl)-6,8-difluoro-4-(trifluoromethyl)-3,4-dihydroquinazolin-2(1H)-one] as the molecule, how does the EC50 read?
The EC50 was 47 nM.

Which EC50 does the source give for `O=C1Nc2cc(Cn3cnccc3=O)ccc2[C@@](C#CC2CC2)(C(F)(F)F)N1` [Example 21, (S)-4-(cyclopropylethynyl)-7-((6-oxopyrimidin-1(6H)-yl)methyl)-4-(trifluoromethyl)-3,4-dihydroquinazolin-2(1H)-one] here?
The EC50 was 181 nM.

For `O=C1Nc2cc(Cn3cnc(C4CC4)cc3=O)ccc2[C@@](C#CC2CC2)(C(F)(F)F)N1` [Example 22, (S)-7-((4-cyclopropyl-6-oxopyrimidin-1(6H)-yl)methyl)-4-(cyclopropylethynyl)-4-(trifluoromethyl)-3,4-dihydroquinazolin-2(1H)-one], which EC50 is on record?
Its EC50 is 288 nM.

`O=C1Nc2cc(Cn3ncccc3=O)ccc2[C@@](C#CC2CC2)(C(F)(F)F)N1` [Example 23, (S)-4-(cyclopropylethynyl)-7-((6-oxopyridazin-1(6H)-yl)methyl)-4-(trifluoromethyl)-3,4-dihydroquinazolin-2(1H)-one] was tested. Which EC50 did it give?
The EC50 was 250 nM.

For `Nc1ccnn(Cc2ccc3c(c2)NC(=O)N[C@]3(C#CC2CC2)C(F)(F)F)c1=O` [Example 24, (S)-7-((5-amino-6-oxopyridazin-1(6H)-yl)methyl)-4-(cyclopropylethynyl)-4-(trifluoromethyl)-3,4-dihydroquinazolin-2(1H)-one], which EC50 is on record?
Its EC50 is 210 nM.

With `O=C1Nc2cc(Cn3cnc(C(F)(F)F)cc3=O)ccc2[C@@](C#CC2CC2)(C(F)(F)F)N1` [Example 25, (S)-4-(cyclopropylethynyl)-7-((6-oxo-4-(trifluoromethyl)pyrimidin-1(6H)-yl)methyl)-4-(trifluoromethyl)-3,4-dihydroquinazolin-2(1H)-one] as the molecule, how does the EC50 read?
Its EC50 is 194 nM.

For `Nc1ccnn(Cc2cc3c(cc2F)[C@@](C#CC2CC2)(C(F)(F)F)NC(=O)N3)c1=O` [Example 26, (S)-7-((5-amino-6-oxopyridazin-1(6H)-yl)methyl)-4-(cyclopropylethynyl)-6-fluoro-4-(trifluoromethyl)-3,4-dihydroquinazolin-2(1H)-one], which EC50 is on record?
Its EC50 is 226 nM.

Reference: patent publication US12558357B2, “Tetrahydroquinazoline derivatives as selective cytotoxic agents” (Merck Sharp & Dohme LLC, priority 2020, dated 2026)
